According to PMC11016601, “Exploring the bioaccessibility and intestinal absorption of major classes of pure phenolic compounds using in vitro simulated gastrointestinal digestion” (Heliyon, 2024):
≈ marks a conversion by molar mass, not a printed value. Where “and” joins values, the source holds several entries; their conditions need not be identical. Equal values may be shown once. Read-outs that look alike come from different tables or passages of the source. Marks after values point to notes of the source that are not given here.

Key:
[1] = design: method as in earlier work; conditions: cited from earlier work
[2] = In vitro simulated gastrointestinal digestion (SGD, INFOGEST 2.0): concentration and bioaccessibility by UHPLC-DAD-MSn; conditions: for Bioaccessibility (%), initial solution (IS): reference
Method: Preliminary solubility tests in different solvents, namely water, sodium phosphate buffer (26.8 mM, pH 6.1), ethanol, and also a mixture of ethanol with both water and sodium phosphate buffer, were carried out for each PC (data not shown), to prevent erroneous data arising from compounds precipitation. Ethanol percentages used in these preliminary solubility tests were 10, 15, and 20% (v/v).
Each PC solubilized in ethanol:water (15% v/v) was then submitted to an in vitro SGD (INFOGEST 2.0), according to a standardized protocol (Fig. 2). In order to determine whether the interaction between the compounds and enzymes led to an underestimation of their content, each PC solution was submitted to the same digestion procedure, replacing the enzyme solutions with water, which were designed as controls, henceforth this will be the term used. Each sample and control were submitted to three independent in vitro digestion simulations, and after each digestion phase, a sample/control was collected and further analyzed and quantified by UHPLC-DAD-MSn.
(§1) Mouth digestion of each PC solution (1 mL) was diluted in 0.8 mL of simulated salivary fluid (SSF) and α-amylase (75 U mL-1). Then, the mixture was incubated for 2 min at 37 °C under agitation (200 rpm). In order to start gastric digestion, pH was adjusted to 3.0 using 1 M aqueous HCl and then, a pepsin solution (2000 U mL-1) and simulated gastric fluid (SGF) were added. Subsequently, the mixture was incubated for 2h, at 37 °C and 130 rpm orbital agitation for the stomach digestion. Finally, the small intestine digestion simulation was performed after pH adjustment to 7.0 using 1 M aqueous […] and the addition of pancreatin (100 U mL-1), bile salts solution (10 mM) and simulated intestinal fluid (SIF), during 2 h, at 37 °C with 45 rpm orbital agitation. Natural small intestine absorption was also simulated, by placing the remaining sample in a dialysis membrane, and immersed in distilled water overnight at room temperature.
At each sampling point, an aliquot (0.5 mL) from each of the three replicates was collected. The enzymatic activity was stopped immediately by adding pure methanol to each aliquot (1:1, v/v) to promote enzyme precipitation and subsequently centrifuged at 10 000 g and 4 °C for 5 min. The supernatants were filtered with a 0.2 μm nylon filter. To determine the concentration of each sample or control, it was considered the following dilution factor – 1:2, 1:4 and 1:8 for oral, gastric and intestinal digestion phase, respectively.
The bioaccessibility percentage (B%) of each PC was calculated using equation (1):(1) B(%)=[DS]/[IS]×100 where IS is the initial concentration of PCs in ethanol:water (15% v/v) solutions, DS is the concentration of each collected sample or control (without enzymes).
(§2) The values of B% and IA% were the average of the three replicates performed, with the calculated standard deviation.
PCs were analyzed in a UHPLC system equipped with a variable loop Accela autosampler (set at 16 °C), an Accela 600 LC pump, and an Accela 80 Hz photo diode array detector (DAD) (Thermo Fisher Scientific, San Jose, CA, USA). Each sample was prepared in methanol:water (1:1, v/v) and filtered through a 0.2 μm nylon syringe filter. […] The mobile phase was composed of acetonitrile (A) and water:acetonitrile (99:1, v/v) (B), both with 0.1 % of formic acid. The gradient elution was performed as follows: 0–1min: 99% B; 1–17 min: 99-73% B, 17–20 min: 73-0% B, 20–25 min: 0–99% B, followed by re-equilibration of the column at 99% B for 4 min.

[3] = Simulation of intestinal absorption using a dialysis membrane (3 kDa) after in vitro SGD
From the text: HPLC-grade methanol, water, and acetonitrile were supplied by Fisher Scientific Chemicals. The enzymes α-amylase (A1031), pepsin from porcine stomach mucosa (P7012), pancreatin from porcine pancreas (P7545), and bile salts (B863) were purchased from Sigma-Aldrich (Taufkirchen, Germany). The rabbit gastric extract (RGE15) with gastric lipase activity was purchased from Lipolytech (Marseille, France). The ethanol was purchased from Merck (Algés, Portugal). A dialysis membrane with a molecular pore size of 3 kDa was purchased from Spectra/Pro (Spectrum Lab, Breda, Netherlands).
as §1
Furthermore, to determine the intestinal absorption, the aliquots collected inside the dialysis membrane were analyzed. The concentration of these samples (from inside of the membrane) corresponds to the amount of each PC that has not passed through to the outside of the membrane.
as §2

Caco-2 cell monolayers = conditions: Caco-2 monolayers; cited from earlier work
[4] = design: method as in PMID 19375897; conditions: cited from earlier work
[5] = design: method as in doi:10.1016/J.JFF.2016.08.003; conditions: cited from earlier work
[6] = controls (without enzymes), gastric phase
[7] = controls (without enzymes), initial solution
[8] = controls (without enzymes), intestinal phase
[9] = controls (without enzymes), oral phase
[10] = samples with enzymes, after gastric digestion pH 3.0
[11] = samples with enzymes, after intestinal digestion pH 7.0
[12] = samples with enzymes, after oral digestion
[13] = samples with enzymes, gastric phase
[14] = samples with enzymes, intestinal phase
[15] = samples with enzymes, oral phase
[16] = samples, initial ethanol:water (15% v/v) solution

| Structure (SMILES) | Bioaccessibility (%), oral phase (O) ([2]; 2 min) | Bioaccessibility (%), gastric phase (G) [2, 6] | Concentration, gastric phase (G) [2, 6] [µg/mL] | Concentration, initial solution (IS) [2, 7] [µg/mL] | Bioaccessibility (%), initial solution (IS) [2, 7] | Bioaccessibility (%), intestinal phase (I) [2, 8] | Concentration, intestinal phase (I) [2, 8] [µg/mL] | Bioaccessibility (%), oral phase (O) [2, 9] | Concentration, oral phase (O) [2, 9] | Concentration, gastric phase (G) [2, 10] [µg/mL] | Concentration, intestinal phase (I) [2, 11] [µg/mL] | Concentration, oral phase (O) [2, 12] [µg/mL] | Bioaccessibility (%), gastric phase (G) [2, 13] | Bioaccessibility (%), intestinal phase (I) [2, 14] | Bioaccessibility (%), oral phase (O) [2, 15] | Concentration, initial solution (IS) [2, 16] [µg/mL] | Bioaccessibility (%), initial solution (IS) ([2]; samples, initial solution) | Concentration, dialysis phase (D) [3] | permeability class from Papp, apical-to-basolateral direction (Caco-2 cell monolayers) | further results |
| --- | --- | --- | --- | --- | --- | --- | --- | --- | --- | --- | --- | --- | --- | --- | --- | --- | --- | --- | --- | --- |
| O=c1cc(-c2ccc(O)cc2)oc2cc(O)cc(O)c12 [APG, apigenin] | 127.10 ± 1.17 ^a,b % | 15.20% and 15.20 ± 3.04 ^d % | 1.42 ± 0.28 | 9.33 | 100 ^c % | 158.32 ± 5.05 ^a % | 14.78 ± 0.47 | 134.98 ± 8.17 ^b % | 12.60 ± 0.76 µg/mL | 2.58 ± 0.47 | 13.74 ± 1.22 | 11.86 ± 0.11 | 27.60% and 27.60 ± 5.02^ c % | 147.20% and 147.20 ± 13.05 ^a % | 127.10% | 9.33 | 100 ^b % |  |  | bioaccessible fraction after intestinal digestion relative to the gastric phase [1]: 2 fold |
| O=C(CCc1ccc(O)cc1)c1c(O)cc(O)cc1O [PH, phloretin] | 96.46 ± 10.69^ a % | 91.73% and 91.73 ± 13.24 ^a,b % | 264.55 ± 38.18 | 288.39 | 100 ^a,b % | 58.91% and 58.91 ± 16.19 ^b % | 169.91 ± 46.69 | 111.74% and 111.74 ± 7.23^ a % | 322.24 ± 20.85 µg/mL | 210.15 ± 21.97 | 148.67 ± 32.07 | 278.19 ± 30.82 | 72.87 ± 7.62 ^a,b % | 51.55% and 51.55± 11.12 ^b % | 96.46% | 288.39 | 100^ a % | 17.18 ± 2.01 µg/mL | low-permeable | Concentration, dialysis phase (D) ([3]; pig): 26.35 ± 10.09 µg/mL |
| O=c1c(O)c(-c2ccc(O)c(O)c2)oc2cc(O)cc(O)c12 [QUE, quercetin] | 57.23 ± 6.98^ b % |  |  | 39.89 | 100% | 17.59 ± 1.70% | 7.02 ± 0.7 |  | 13.64** μg mL^-1 | 2.74 ± 0.63 | 7.33 ± 0.10 | 22.83 ± 2.78 | 6.87% and 6.87 ± 1.57^ c % | 18.36% and 18.36 ± 0.26^ c % | 57.23% | 39.89 | 100^ a % | below the detection limit | low-permeable | solubility ([4]; pH 1.5): 0.0055 mg/mL (≈ 18.2 µM); solubility ([4]; pH 7.5): 0.0289 mg/mL (≈ 95.6 µM); Intestinal absorption (IA%) [3]: very high |
| C[C@@H]1O[C@@H](OC[C@H]2O[C@@H](Oc3c(-c4ccc(O)c(O)c4)oc4cc(O)cc(O)c4c3=O)[C@H](O)[C@@H](O)[C@@H]2O)[C@H](O)[C@H](O)[C@H]1O [RUT, rutin] |  | 97.20 ± 2.29 ^a,b % | 317.06 ± 7.46 | 326.19 | 100 ^a,b % | 87.44 ± 5.94 ^b % | 285.21 ± 19.38 | 101.57 ± 2.61^ a % | 331.30 ± 8.52 µg/mL | 320.45 ± 11.33 | 265.68 ± 13.37 | 281.60 ± 67.69 | 98.24% and 98.24 ± 3.47^ a % | 81.45% and 81.45 ± 4.10^ a % | 86.33% and 86.33 ± 20.75^ a % | 326.19 | 100^ a % |  | low-permeable | formation of metabolites during in vitro SGD (UHPLC-DAD-MSn) ([2]; samples with enzymes): produced a metabolite after intestinal digestion simulation; percentage collected from inside of dialysis membrane ([5]; after in vitro gastrointestinal digestion): 1.65%; IA% ([5]; dialysis membrane): about 98%; Concentration, dialysis phase (D) ([3]; controls (without enzymes), aliquot from inside the dialysis membrane): 15.12 ± 5.54 µg/mL; Intestinal absorption (IA%) ([3]; controls (without enzymes), dialysis membrane): 94.75% and 94.75 ± 1.72%; Concentration, dialysis phase (D) ([3]; samples with enzymes, aliquot from inside the dialysis membrane): 22.24 ± 1.52 µg/mL; Intestinal absorption (IA%) ([3]; samples with enzymes, dialysis membrane): 91.63% and 91.63 ± 0.28% |
